{
  "source": "patent US20110245323A1",
  "about": "“RIG-Like Helicase Innate Immunity Inhibits VEGF-Induced Tissue Responses” (Yale University, priority 2006, published 2011)",
  "type_in_all_cases": "in vivo, mouse",
  "key": {"[1]": {"tested_on": "CC10-rtTA-VEGF165 transgenic mice", "assay": "VEGF-induced mucus metaplasia (PAS staining, BAL MUC5AC)", "conditions": "for VEGF-induced mucus metaplasia (PAS stains, BAL MUC5AC accumulation): vs vehicle", "experimental": "(§1) To define the effects of Poly(I:C) a number of protocols were employed. In most experiments, a pretreatment-2 week protocol was employed. In these experiments, WT and Tg+ mice were treated with Poly(I:C) (30 μg in 50 lambda unless otherwise indicated; Amersham Biosciences, N.J.) or vehicle control via nasal aspiration and transgene activation was accomplished via the administration of dox (0.5 mg/ml) in the animal's drinking water 24 hours later. The Poly(I:C) was administered every other day and the dox was administered continuously for up to 2 weeks.\nLastly, in selected experiments post-transgene activation protocols were employed. In these experiments dox was administered for 2 days or 2 weeks. The Poly(I:C) was then administered via intranasal aspiration every other day for 2 weeks as disclosed elsewhere herein. In selected pre-treatment and post-transgene activation experiments, unmethylated CpG (CpG-B) (Keck Center, Yale University) was also employed at similar doses. At the end of these intervals, assessments of angiogenesis (anti-CD31 immunohistochemistry), vascular permeability (Evan's blue dye extravasation, wet to dry lung weight measurements, BAL protein concentration), BAL and tissue inflammatory cell infiltration and mucus metaplasia (periodic acid-Schiff (PAS) staining, MUC5AC immunoblotting) were undertaken. In all cases experiments were designed to compare Tg− and Tg+ mice on normal water and Tg− and Tg+ mice on dox water.\nThe lungs were removed en bloc as described elsewhere herein, inflated at 25 cm pressure with PBS containing 0.5% low melting point agarose gel, fixed in Streck solution (Streck Laboratories, La Vista, Nebr.), embedded in paraffin, sectioned and stained. Hematoxylin and eosin and PAS stains were performed in the Research Histology Laboratory of the Department of Pathology at the Yale University School of Medicine. Pulmonary hemorrhage was evaluated by quantitating BAL red blood cell number with a Coulter counter (Beckman Coulter).\nThe levels of MUC5AC, the major airway mucin in BAL fluids, were assessed as previously described (Lee et al., 2008, Am J Respir Cell Mol Biol 39:739-746). In these evaluations, 0.1 ml of BAL fluid was slot blotted onto nitrocellulose membranes using a Minifold II slot blot apparatus (Schleicher & Schuell). After air-drying, the membrane was blocked with 5% skim milk, washed three times and incubated overnight at 4° C. with a monoclonal antibody against Mucin-5AC (45M1; NeoMarkers, Union City, Calif.). After washing, the membranes were incubated for 1 hour at room temperature with horseradish peroxidase-conjugated anti-mouse immunoglobulin (Ig)-G (Pierce). Immunoreactive mucins were detected using a chemiluminescent procedure (ECL Plus Western blotting detection system, Amersham Biosciences) according to instructions from the manufacturer."}, "transgenic hVEGF": {"tested_on": "transgenic hVEGF", "assay": "BAL levels of transgenic VEGF by ELISA", "conditions": "Tg+ mice, Poly(I:C) vs vehicle; doses <30 μg", "source_text": "WT and CC10-rtTA-VEGF mice were used in these studies. The latter used the Clara cell 10-kDa protein (CC10) promoter and two transgenic constructs to target VEGF to the lung in an externally regulatable fashion. The human (h) VEGF165 transgene in these mice was activated via the administration of doxycycline (dox) as previously described (Lee et al., 2004, Nat Med 10:1095-1103). In the wild type (WT) mice on normal or dox water and the Tg+ mice on normal water, hVEGF levels in bronchoalveolar lavage fluids (BAL) were <10 pg/ml. Increased levels of BAL VEGF were noted within 24 hours and steady state levels between 0.5 and 1.2 ng/ml were seen after 1 week of dox administration (FIG. 28).\nas §1\n(§2) ELISA assay kits for VEGF and IL-13 were purchased from R&D Systems (Minneapolis, Minn.)."}, "[2]": {"tested_on": "Erk, FAK, Akt, and eNOS signaling pathways", "assay": "VEGF signaling in lung (eNOS/iNOS mRNA, immunoblot of Erk, FAK, Akt, eNOS)", "conditions": "Tg+ mice lung", "experimental": "These experiments used antibodies specific for Akt or phosphorylated (p) Akt (Danvers Mass.), FAK or pFAK (BioSource, International; Camarillo Calif.), PI3K or pPI3K (Cell Signalling), eNOS and iNOS (Santa Cruz BioTechnology, Santa Cruz Calif., USA) and MUC-5AC (NeoMarkers; Fremont). Western blot analysis was performed using standard protocols and visualized using the ECL system (Amersham Biosciences; Piscataway, N.J.).\nTotal RNA was isolated from fresh mouse lung with TRIzol reagent (Invitrogen; Carlsbad, Calif.) following the manufacturer's instructions. Quantification of mouse lung mRNA was performed by quantitative real-time PCR using ABI 7500 fast real-time PCR system (Applied Biosystems; Foster City, Calif.) and power SYBR green PCR master mix kit with appropriately specific primers (Applied Biosystems; Foster City, Calif.).\nLung lysates were subjected to immunoblot analysis using antibodies against phosphorylated (p) p-Erk, total Erk, p-Fak; total FAK; p-Akt, total Akt, peNOS and total eNOS (Cell Signaling, Beverly Mass.)."}, "[3]": {"tested_on": "OVA sensitized and challenged mice", "assay": "Ovalbumin (OVA) sensitization and challenge Th2 inflammation model", "experimental": "Mice were sacrificed using intraperitoneal ketamine/xylazine injection and the trachea was cannulated and perfused with two 0.9 nil aliquots of cold saline. The cellular contents and BAL fluid were separated by centrifugation, the BAL cell number was quantitated and cell differential was assessed. The BAL fluid was stored in aliquots at −80° C.\nas §2\n(§3) OVA sensitization (with alum) and aerosol OVA challenge were undertaken as previously described (Lee et al., 2008, Am J Respir Cell Mol Biol 39:739-746; Lee et al., 2009, J Exp Med 206:1149-1166). The responses in mice that had been treated with Poly(I:C) or vehicle 24 hours before the aerosol challenge were compared. The BAL and tissue responses were evaluated 24 hours after antigen challenge."}, "MAVS": {"tested_on": "MAVS", "assay": "Poly(I:C) effects in MAVS null mice", "source_text": "(§4) TLR3^−/−-mice were a gift from Dr. Richard A. Flavell (Yale University), MAVS null mice were a gift from Dr Zijian J. Chen (U of Texas Southwestern) (Sun et al., 2006, Immunity 24:633-642), double stranded RNA-dependent protein kinase null mutant mice (PKR^−/−) were a gift from Dr. Bryan R. G. Williams (Cleveland Clinic Foundation) (Yang et al., 1995, Embo J 14:6095-6106) and IFNAR1 null mice were obtained from Dr. Richard Enelow (Dartmouth). These mice were bred with the VEGF Tg+ mice to generate transgenic mice with wild type (+/+) or null (−/−) TLR3, MAVS, PKR or IFNAR1 loci. Thus, in each given experiment, the effects in transgene negative (Tg−) and transgenic (Tg+) mice with WT and null TLR3, MAVS, PKR or IFNAR1 loci were compared.\nas §1, §3"}, "PKR": {"tested_on": "PKR", "assay": "Poly(I:C) regulation of VEGF responses in PKR null VEGF Tg+ mice", "conditions": "angiogenesis and dye extravasation", "source_text": "as §4, §1"}},
  "note": "Entries after “also recorded” stand apart in the source; their conditions may differ.",
  "data": [
    {"substance": "polyinosinic-polycytidylic acid [Poly(I:C)]", "values": [
      {"measurement": "VEGF-stimulated mucus secretion", "setting": "[1]; Tg+ mice, pretreatment", "value": "decreased"},
      {"measurement": "VEGF-induced mucus metaplasia (PAS stains, BAL MUC5AC accumulation)", "setting": "[1]; Tg+ mice, pretreatment", "value": "inhibited"},
      {"measurement": "VEGF-induced mucus metaplasia (PAS stains, BAL MUC5AC accumulation)", "setting": "[1]; Tg+ mice, pretreatment, listed as poly(I:C)", "value": "significantly decreased"},
      {"measurement": "VEGF-induced mucus metaplasia, delayed administration", "setting": "[1]; given 48 hours or 14 days after dox-induced transgene activation", "value": "significant inhibition"},
      {"measurement": "lowest dose with significant inhibition of VEGF-induced mucus metaplasia", "setting": "[1]; pretreatment", "value": 5, "unit": "µg"},
      {"measurement": "dose with maximal inhibition of VEGF-induced mucus metaplasia", "setting": "[1]; pretreatment, highest dose tested", "value": 30, "unit": "µg"},
      {"measurement": "levels of production of transgenic VEGF in BAL fluids", "setting": "transgenic hVEGF", "value": "did not alter"},
      {"measurement": "VEGF activation/phosphorylation of Erk, FAK, Akt and eNOS", "setting": "[2]; 30 μg pretreatment, 2 weeks", "value": "significantly decreased"},
      {"measurement": "VEGF-induced eNOS and iNOS mRNA accumulation and AKT phosphorylation/activation", "setting": "[2]; p<0.05", "value": "significant decrease"},
      {"measurement": "OVA-induced cytokine response (BAL IL-13)", "setting": "[3]", "value": "significant decrease"},
      {"measurement": "OVA-induced inflammatory response (BAL total cell, macrophage, eosinophil, lymphocyte recovery)", "setting": "[3]; Poly(I:C) 24 hours before aerosol challenge", "value": "significant decrease; also recorded: abrogated"},
      {"measurement": "ability to inhibit VEGF-induced angiogenic, edema, inflammatory and mucus responses in MAVS deficient animals", "setting": "MAVS; 30 μg pretreatment, 2 weeks", "value": "abrogated"},
      {"measurement": "induction of Type I IFNs in mice with null MAVS loci", "setting": "MAVS; BAL IFN-α and IFN-β", "value": "significantly ameliorated"},
      {"measurement": "inhibitory effects on OVA-induced inflammation in MAVS null animals", "setting": "MAVS; OVA sensitization and challenge", "value": "abrogated"},
      {"measurement": "effects of Poly(I:C) in PKR null mice", "setting": "PKR", "value": "not significantly altered"}
    ]}
  ]
}
